The record followed here is patent publication US11840533B2, “Pyridinone-based epigenetic modifiers and uses thereof” (THE BOARD OF TRUSTEES OF THE UNIVERSITY OF ILLINOIS, priority 2017, dated 2023).

pIC50: −log10 of the molar value. Bounds are passed on as bounds.

In the assay the test system is fulvestrant-resistant MCF7:5C-FR cells. Nature of the assay: Fulvestrant-resistant breast cancer cell viability (cell proliferation) assay. The settings on record: 120 h, growth inhibition in fulvestrant-resistant MCF-7:CFR cells, 120 hrs. In kind it is cell-based. The protocol:
For the cell proliferation assay, the fulvestrant-resistant MCF7:5C-FR cells were seeded at about 2000 to about 2500/well in 96-well plates. The next day, compounds were add to the cells at desired serial concentrations form 3 nM to 10 uM. A final 0.1% (v/v) DMSO was used as vehicle control and 1 uM JQ1 was used as positive. The cell were grown in the normal culture condition for 120 hrs. Then the Hoechst 33342 dye were add to each well at a final concentration of 5 μg/ml, and put back to the incubator at 37 C for 90 min. The plates were scanned immediately after the incubation with Celigo (Nexcelcom Biocesnse) for the fluorescence of the nuclear using DAPI channel, and the cell number was counted thought the analysis function of the Celigo software. The normalized cell number to the vehicle control was used to represent the cell proliferation. […] N.D.=Not determined.

For the molecule `CCS(=O)(=O)Nc1cc(-c2cn(C)c3c(O)nccc23)cc2c1ncn2Cc1ccc(F)cc1` [Compound 37, N-(1-(4-fluorobenzyl)-6-(7-hydroxy-1-methyl-1H-pyrrolo[2,3-c]pyridin-3-yl)-1H-benzo[d]imidazol-4-yl)ethanesulfonamide], the pIC50 (commonly −log10 of the IC50, conventionally taken in molar units) is greater than 6.00.

With `Cn1cc(-c2cc(NS(C)(=O)=O)c3ncn(Cc4ccc(F)cc4)c3c2)c2ccnc(O)c21` [Compound 38, N-(1-(4-fluorobenzyl)-6-(7-hydroxy-1-methyl-1H-pyrrolo[2,3-c]pyridin-3-yl)-1H-benzo[d]imidazol-4-yl)methanesulfonamide], the pIC50 is greater than 6.70.

In turn, `Cn1cc(-c2nc3c(NS(C)(=O)=O)cccc3n2Cc2ccc(F)cc2)c2ccnc(O)c21` [Compound 39, N-(1-(4-fluorobenzyl)-2-(7-hydroxy-1-methyl-1H-pyrrolo[2,3-c]pyridin-3-yl)-1H-benzo[d]imidazol-4-yl)methanesulfonamide] showed a negative logarithm of the IC50 (pIC50) greater than 6.00.

`CCS(=O)(=O)Nc1cccc2c1nc(-c1cn(C)c3c(O)nccc13)n2Cc1ccc(F)cc1` [Compound 40, N-(1-(4-fluorobenzyl)-2-(7-hydroxy-1-methyl-1H-pyrrolo[2,3-c]pyridin-3-yl)-1H-benzo[d]imidazol-4-yl)ethanesulfonamide] gave a pIC50 greater than 6.00.

`CCS(=O)(=O)Nc1cccc2c1nc(-c1cn(C)c3c(O)nccc13)n2Cc1ccc(F)cc1C` [Compound 41, N-(1-(4-fluoro-2-methylbenzyl)-2-(7-hydroxy-1-methyl-1H-pyrrolo[2,3-c]pyridin-3-yl)-1H-benzo[d]imidazol-4-yl)ethanesulfonamide] gave a pIC50 greater than 6.00.

`CCS(=O)(=O)Nc1cccc2c1nc(-c1cn(C)c3c(O)nccc13)n2Cc1c(C)cc(F)cc1C` [Compound 42, N-(1-(4-fluoro-2,6-dimethylbenzyl)-2-(7-hydroxy-1-methyl-1H-pyrrolo[2,3-c]pyridin-3-yl)-1H-benzo[d]imidazol-4-yl)ethanesulfonamide] gave a pIC50 greater than 6.00.

Consider `CCS(=O)(=O)Nc1cccc2c1nc(-c1cn(C)c3c(O)nccc13)n2Cc1ccc(F)cc1F` [Compound 43, N-(1-(2,4-difluorobenzyl)-2-(7-hydroxy-1-methyl-1H-pyrrolo[2,3-c]pyridin-3-yl)-1H-benzo[d]imidazol-4-yl)ethanesulfonamide], for which the negative logarithm of the IC50 (pIC50) is greater than 6.00.

The molecule `CCS(=O)(=O)Nc1cc(-c2cn(C)c3c(O)nccc23)cc2c1cnn2Cc1cccc2ccsc12` [Compound 44, N-(1-(benzo[b]thiophen-7-ylmethyl)-6-(7-hydroxy-1-methyl-1H-pyrrolo[2,3-c]pyridin-3-yl)-1H-indazol-4-yl)ethanesulfonamide] showed a pIC50 of less than 7.00.

`CCS(=O)(=O)Nc1cc(-c2cn(C)c3c(O)nccc23)cc2c1cnn2Cc1cccc2c1ccn2C` [Compound 45, N-(6-(7-hydroxy-1-methyl-1H-pyrrolo[2,3-c]pyridin-3-yl)-1-((1-methyl-1H-indol-4-yl)methyl)-1H-indazol-4-yl)ethanesulfonamide] had a pIC50 of less than 7.00.

`Cn1cc(-c2cc(NS(=O)(=O)C3CC3)c3cnn(Cc4ccccc4)c3c2)c2ccnc(O)c21` [Compound 46, N-(1-benzyl-6-(7-hydroxy-1-methyl-1H-pyrrolo[2,3-c]pyridin-3-yl)-1H-indazol-4-yl)cyclopropanesulfonamide] had a negative-log IC50 (pIC50) greater than 6.00.

With `CCS(=O)(=O)Nc1cc(-c2cn(C)c3c(O)nccc23)cc2c1ccn2Cc1cccc(Cl)c1Cl` [Compound 47, N-(1-(2,3-dichlorobenzyl)-6-(7-hydroxy-1-methyl-1H-pyrrolo[2,3-c]pyridin-3-yl)-1H-indol-4-yl)ethanesulfonamide], the negative-log IC50 (pIC50) was greater than 6.00.

As to `CCS(=O)(=O)Nc1cc(-c2cn(C)c3c(O)nccc23)cc2c1ccn2Cc1cccc(F)c1F` [Compound 48, N-(1-(2,3-difluorobenzyl)-6-(7-hydroxy-1-methyl-1H-pyrrolo[2,3-c]pyridin-3-yl)-1H-indol-4-yl)ethanesulfonamide], the negative logarithm of the IC50 (pIC50) was greater than 6.00.

Regarding `CCS(=O)(=O)Nc1cc(-c2cn(C)c3c(O)nccc23)cc2c1ccn2Cc1ccccc1` [Compound 49, N-(1-benzyl-6-(7-hydroxy-1-methyl-1H-pyrrolo[2,3-c]pyridin-3-yl)-1H-indol-4-yl)ethanesulfonamide], the negative-log IC50 (pIC50) was greater than 6.00.

For `CCS(=O)(=O)Nc1cc(-c2cn(C)c3c(O)nccc23)cc2c1ccn2Cc1ccc(Cl)c(Cl)c1` [Compound 50, N-(1-(3,4-dichlorobenzyl)-6-(7-hydroxy-1-methyl-1H-pyrrolo[2,3-c]pyridin-3-yl)-1H-indol-4-yl)ethanesulfonamide], the pIC50 is greater than 6.00.

For the molecule `CCS(=O)(=O)Nc1cc(-c2cn(C)c3c(O)nccc23)cc2c1ccn2Cc1cc(Cl)ccc1OC` [Compound 51, N-(1-(5-chloro-2-methoxybenzyl)-6-(7-hydroxy-1-methyl-1H-pyrrolo[2,3-c]pyridin-3-yl)-1H-indol-4-yl)ethanesulfonamide], the pIC50 was greater than 6.00.

The molecule `CCS(=O)(=O)Nc1cc(-c2cn(C)c3c(O)nccc23)cc2c1ccn2Cc1cc(Cl)ccc1Cl` [Compound 52, N-(1-(2,5-dichlorobenzyl)-6-(7-hydroxy-1-methyl-1H-pyrrolo[2,3-c]pyridin-3-yl)-1H-indol-4-yl)ethanesulfonamide] had a pIC50 greater than 6.00.

As to `CCS(=O)(=O)Nc1cc(-c2cn(C)c3c(O)nccc23)cc2c1ccn2Cc1cccc2ccsc12` [Compound 53, N-(1-(benzo[b]thiophen-7-ylmethyl)-6-(7-hydroxy-1-methyl-1H-pyrrolo[2,3-c]pyridin-3-yl)-1H-indol-4-yl)ethanesulfonamide], the pIC50 is greater than 6.00.

`CCS(=O)(=O)Nc1cc(-c2cn(C)c3c(O)nccc23)cc2c1ccn2Cc1ccc(O)c(Cl)c1` [Compound 54, N-(1-(3-chloro-4-hydroxybenzyl)-6-(7-hydroxy-1-methyl-1H-pyrrolo[2,3-c]pyridin-3-yl)-1H-indol-4-yl)ethanesulfonamide] gave a pIC50 of less than 7.00.

The molecule `CCS(=O)(=O)Nc1cc(-c2cn(C)c3c(O)nccc23)cc2c1ccn2Cc1cc(Cl)c(O)cc1C` [Compound 55, N-(1-(5-chloro-4-hydroxy-2-methylbenzyl)-6-(7-hydroxy-1-methyl-1H-pyrrolo[2,3-c]pyridin-3-yl)-1H-indol-4-yl)ethanesulfonamide] showed a negative logarithm of the IC50 (pIC50) of less than 7.00.

`CCS(=O)(=O)Nc1cc(-c2cn(C)c3c(O)nccc23)cc2c1ccn2Cc1cc(Cl)cc(OCCN(C)C)c1` [Compound 56, N-(1-(3-chloro-5-(2-(dimethylamino)ethoxy)benzyl)-6-(7-hydroxy-1-methyl-1H-pyrrolo[2,3-c]pyridin-3-yl)-1H-indol-4-yl)ethanesulfonamide]: the negative-log IC50 (pIC50) is less than 7.00.

`CCS(=O)(=O)Nc1cc(-c2cn(C)c3c(O)nccc23)cc2c1ccn2Cc1cc(Cl)cc(CCN(C)C)c1` [Compound 57, N-(1-(3-chloro-5-(2-(dimethylamino)ethyl)benzyl)-6-(7-hydroxy-1-methyl-1H-pyrrolo[2,3-c]pyridin-3-yl)-1H-indol-4-yl)ethanesulfonamide] gave a pIC50 of less than 7.00.

`CCS(=O)(=O)Nc1cc(-c2cn(C)c3c(O)nccc23)cc2c1ccn2Cc1ccc(C#N)cc1` [Compound 58, N-(1-(4-cyanobenzyl)-6-(7-hydroxy-1-methyl-1H-pyrrolo[2,3-c]pyridin-3-yl)-1H-indol-4-yl)ethanesulfonamide] had a negative logarithm of the IC50 (pIC50) greater than 6.00.

The molecule `CCS(=O)(=O)Nc1cc(-c2cn(C)c3c(O)nccc23)cc2c1ccn2Cc1ccccc1C(F)(F)F` [Compound 59, N-(6-(7-hydroxy-1-methyl-1H-pyrrolo[2,3-c]pyridin-3-yl)-1-(2-(trifluoromethyl)benzyl)-1H-indol-4-yl)ethanesulfonamide] showed a pIC50 of less than 7.00.

Molecule `CCS(=O)(=O)Nc1cccc2c1nc(-c1cn(C)c3c(O)nccc13)n2Cc1ccccc1` [Compound 60, N-(1-benzyl-2-(7-hydroxy-1-methyl-1H-pyrrolo[2,3-c]pyridin-3-yl)-1H-benzo[d]imidazol-4-yl)ethanesulfonamide] gave a pIC50 of less than 7.00.

Take `CCS(=O)(=O)Nc1cccc2c1nc(-c1cn(C)c3c(O)nccc13)n2Cc1ccccc1C(F)(F)F` [Compound 62, N-(2-(7-hydroxy-1-methyl-1H-pyrrolo[2,3-c]pyridin-3-yl)-1-(2-(trifluoromethyl)benzyl)-1H-benzo[d]imidaol-4-yl)ethanesulfonamide]: the pIC50 is less than 7.00.

As for `CCS(=O)(=O)Nc1cc(-c2cn(C)c3c(O)nccc23)cc2c1cnn2C(C)(c1ccccn1)c1ccccn1` [Compound 63, N-(1-(1,1-di(pyridin-2-yl)ethyl)-6-(7-hydroxy-1-methyl-1H-pyrrolo[2,3-c]pyridin-3-yl)-1H-indazol-4-yl)ethanesulfonamide], the pIC50 is greater than 6.00.

In turn, `CCS(=O)(=O)Nc1cc(-c2cn(C)c3c(O)nccc23)cc2c1ncn2[C@H](c1ccccc1)C1CCOCC1` [Compound 64, (S)-N-(6-(7-hydroxy-1-methyl-1H-pyrrolo[2,3-c]pyridin-3-yl)-1-(phenyl(tetrahydro-2H-pyran-4-yl)methyl)-1H-benzo[d]imidaol-4-yl)ethanesulfonamide] gave a pIC50 greater than 6.00.

For the molecule `CCS(=O)(=O)Nc1cccc2c1nc(-c1cn(C)c3c(O)nccc13)n2Cc1ccc(N(C)C)cc1` [Compound 66, N-(1-(4-(dimethylamino)benzyl)-2-(7-hydroxy-1-methyl-1H-pyrrolo[2,3-c]pyridin-3-yl)-1H-benzo[d]imidaol-4-yl)ethanesulfonamide], the negative logarithm of the IC50 (pIC50) is less than 7.00.
